# Measurements taken from PMC4238264, “A Lectin from Dioclea violacea Interacts with Midgut Surface of Lutzomyia migonei, Unlike Its Homologues, Cratylia floribunda Lectin and Canavalia gladiata Lectin” (The Scientific World Journal, 2014).
# Target: T1, Dioclea violacea lectin (DVL) (Macropsychanthus violaceus, UniProt I1SB09)
# T1 sequence (I1SB09 1-237): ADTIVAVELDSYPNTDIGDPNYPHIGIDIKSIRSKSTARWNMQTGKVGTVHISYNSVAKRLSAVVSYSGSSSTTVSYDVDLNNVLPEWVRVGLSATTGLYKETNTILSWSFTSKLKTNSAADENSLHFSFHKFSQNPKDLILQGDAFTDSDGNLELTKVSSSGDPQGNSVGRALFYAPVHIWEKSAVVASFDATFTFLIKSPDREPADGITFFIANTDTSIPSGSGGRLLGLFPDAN
# Experiment: fluorescence microscopy of FITC-lectin binding to fixed Lutzomyia migonei midgut, lectin blocked with sugar
# Settings: 0.1 M D-mannose, 37 °C, 30 min preincubation; carbohydrate recognition domain; FITC-labelled lectin 100 µg/mL
smiles,measurement,value
OC[C@H]1OC(O)[C@@H](O)[C@@H](O)[C@@H]1O (stereo partly drawn) [D-mannose],fluorescence microscopy of FITC-lectin binding to fixed Lutzomyia migonei midgut,"when the midguts were treated with blocked DVL, a remarkable decrease in the fluorescence pattern"
